Measured values as given in article PMC6435570, “Zafirlukast Is a Dual Modulator of Human Soluble Epoxide Hydrolase and Peroxisome Proliferator-Activated Receptor γ” (Frontiers in Pharmacology, 2019).
Entries after “also recorded” stand apart in the source; their conditions may differ.

Tests used:
Type in all cases: cell-based, murine
3T3-L1 cells [1] = experiment: 3T3-L1 adipocyte differentiation, Oil Red O lipid accumulation; conditions: differentiation cocktail plus zafirlukast or montelukast 1, 5, 10 μM or rosiglitazone 2 μM; 14 days
Protocol: (§1) 3T3-L1 cells were differentiated into adipocytes for 14 days according to the protocol of [Zebisch et al. (2012)]. For this, cells were seeded in 6-well plates ([…]) and differentiation was induced after 48 h by addition of a differentiation cocktail containing 1 μg/mL insulin, 0.25 μM dexamethasone and 0.5 mM isobutylmethylxanthine (IBMX) in DMEM supplemented with 10% FCS and 1% PS. […] After 2 days, medium was replaced by DMEM supplemented with 10% FCS, 1% PS and 1 μg/mL insulin for 2 more days. Afterwards, cells were kept for lipid droplet accumulation in DMEM containing 10% FCS and 1% PS until day 15. Media were replaced every other day.
Differentiated 3T3-L1 cells were washed with PBS and subsequently fixed for 60 min with formaldehyde (4% in PBS). Afterwards, cells were thoroughly rinsed with 60% isopropanol and incubated with Oil Red O solution (0.3% in 60% isopropanol) for 120 min. This was followed by the removal of the staining solution and thorough rinsing of the cell layer with ultrapure water. Finally, the plates were dried and pictures of the stained cell layers were taken.
For quantification of the accumulated dye, 3T3-L1 cells were seeded in 24-well plates (0.55 × 10^5/well) instead of 6-wells and the differentiation was carried out as described in the section ‘Adipocyte differentiation’. After 14 days of differentiation, cells were fixed and stained as described above. […] 100 μl of dye extract were transferred to a 96-well plate and absorbance was measured (λabs = 510 nm) by an Infinite F200 plate reader (Tecan Group Ltd., Männedorf, Switzerland). […]
As master regulator of adipocyte differentiation in men and mice, PPARγ plays a crucial role in the cell’s commitment to the adipocyte lineage by controlling important functions such as intracellular biosynthesis, transport and accumulation of lipids. […] Upon differentiation, different parameters such as lipid accumulation and PPARγ target gene expression can be assessed to investigate the PPARγ activating potential of the compounds of interest. […]

[2] = system: PPARγ, FABP-4 and CD36 protein in 3T3-L1 adipocytes; experiment: Protein expression in differentiated 3T3-L1 adipocytes (Western Blot); conditions: rosiglitazone 2 μM; for PPARγ isoforms γ1 and γ2 protein expression: 3T3-L1 differentiated with cocktail plus compound; for Protein expression of PPARγ target genes FABP-4 and CD36: after 14 days
Protocol: as §1
Total 3T3-L1 or HEP-G2 cell lysates were prepared in lysis buffer (20 mM Tris-HCl, pH 7.4, 150 mM NaCl, 2 mM EDTA, 1% Triton X-100, 0.5% NP-40) supplemented with protease and phosphatase inhibitors (PhosSTOP^TM + cOmplete^TM Mini, Roche Diagnostics GmbH, Mannheim, Germany). Protein concentrations were quantified using the Pierce^TM BCA Protein Assay Kit (Thermo Scientific, Waltham, MA, United States). Total protein (30 μg/lane) was separated by SDS-polyacrylamide gel electrophoresis and transferred to nitrocellulose membranes (GE Healthcare Life Sciences, Little Chalfont, United Kingdom). Membranes were blocked with Odyssey blocking reagent (LI-COR Biosciences, Bad Homburg, Germany) for 1 h at room temperature. Ensuing, membranes were incubated with antibodies against CD36 (EPR6573, Abcam, Cambridge, United Kingdom), PPARγ (E-8, Santa Cruz Biotechnology, Heidelberg, Germany), FABP-4 (C-15, Santa Cruz Biotechnology, Heidelberg, Germany) or PPARγ Ser273 (Bioss Antibodies Inc., Woburn, MA, United States) overnight at 4°C. Afterwards, membranes were washed and incubated with fluorescence conjugated secondary antibodies (IRDye, LI-COR Biosciences, Bad Homburg, Germany). Protein antibody complexes were visualized on the Odyssey Infrared Imaging System (LI-COR Biosciences, Bad Homburg, Germany). β-actin (I-19, goat, polyclonal, Santa Cruz Biotechnology, Heidelberg, Germany) was used as loading control. The density of the immune reactive bands was analyzed using the Image Studio 5.2 software (LI-COR Biosciences, Bad Homburg, Germany).
As master regulator of adipocyte differentiation in men and mice, PPARγ plays a crucial role in the cell’s commitment to the adipocyte lineage by controlling important functions such as intracellular biosynthesis, transport and accumulation of lipids. Murine 3T3-L1 fibroblasts are a well characterized in vitro tool to study PPARγ induced adipocyte differentiation. These cells can be differentiated from fibroblasts into adipocytes by an activation cocktail (0.5 mM IBMX, 1 μg/mL insulin, 0.25 μM dexamethasone) together with the potential PPARγ agonist. Upon differentiation, different parameters such as lipid accumulation and PPARγ target gene expression can be assessed to investigate the PPARγ activating potential of the compounds of interest. […] Rosiglitazone (2 μM) was used as positive control. This was followed by insulin (1 μg/mL) treatment for another 48 h. After this, cells were kept in growth medium for a week to complete the differentiation process and allow intracellular lipid accumulation. Subsequently, the cells were stained with Oil Red O solution to investigate the extent of cytoplasmic lipid droplet accumulation as a measure for cell differentiation.
In addition to mRNA expression, the protein expression levels of the two PPARγ target genes FABP-4 and CD36 in differentiated 3T3-L1 cells after 14 days were investigated. For this, total protein lysates were separated by gel electrophoresis followed by Western Blotting (Figure 3E,F and Supplementary Figures S2A,B).

3T3-L1 cells [3] = experiment: WST-1 assay (mitochondrial activity) in differentiating 3T3-L1 cells; conditions: 48 h with differentiation cocktail
Protocol: For measurement of cell proliferation, 3T3-L1 cells were seeded in 24-well plates (0.55 × 10^5/well) instead of 6-wells and the differentiation was carried out as described in the section ‘Adipocyte differentiation’. After 2 days of incubation with the differentiation cocktail with or without the PPARγ agonists, WST-1 reagent (Roche Diagnostic GmbH, Mannheim, Germany) was added (1:10) to the supernatant of the differentiating cells. Then, the cells were further incubated for 2 h at 37°C, 5% CO2 to allow color development. After this, cell supernatant absorbance was measured (λabs = 450 nm) and corrected to a reference wavelength (λabs = 690 nm) with an Infinite F200 plate reader (Tecan Group Ltd., Männedorf, Switzerland). After this, background absorbance was subtracted from all measurements and values were normalized to the differentiated control receiving the differentiation cocktail without addition of a PPARγ agonist (w/o).
In addition to lipid accumulation, mitochondrial activity of 3T3-L1 cells during differentiation was investigated by the turnover of the tetrazolium salt WST-1 into a formazan dye. This provides not only further information on the metabolic capacity of the cells after differentiation but can also indicate toxicity of compounds. For this, 3T3-L1 cells were treated with the differentiation cocktail in the presence or absence of PPARγ agonists for 48 h. After this, WST-1 turnover as a measure for mitochondrial activity was assessed (Figure 2C).

Compound	Lipid accumulation (Oil Red O staining) (3T3-L1 cells [1])	PPARγ isoforms γ1 and γ2 protein expression [2]	Protein expression of PPARγ target genes FABP-4 and CD36 [2]	WST-1 turnover (mitochondrial activity) versus w/o control (3T3-L1 cells [3]; 10 μM)	WST-1 turnover (mitochondrial activity) versus w/o control (3T3-L1 cells [3]; 1 μM)	WST-1 turnover (mitochondrial activity) versus w/o control (3T3-L1 cells [3]; 5 and 10 μM)
CC(C)(O)c1ccccc1CC[C@@H](SCC1(CC(=O)O)CC1)c1cccc(/C=C/c2ccc3ccc(Cl)cc3n2)c1 [Montelukast, montelukast]	did not trigger any lipid accumulation; also recorded: did not induce cell lipid accumulation	not affected	no effect at all	over threefold	–	–
COc1cc(C(=O)NS(=O)(=O)c2ccccc2C)ccc1Cc1cn(C)c2ccc(NC(=O)OC3CCCC3)cc12 [Zafirlukast, zafirlukast]	induced lipid accumulation in a dose-dependent manner, but to a lesser extend compared to rosiglitazone	upregulated the protein levels	induced target gene expression as well but to a weaker extent	–	threefold	comparable to the w/o control; also recorded: had no influence on mitochondrial activity
